Assay results: ChEMBL document CHEMBL1201862, “PubChem BioAssay data set” (2004)
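Briefly, cells in 96-well plates were exposed to five compound concentrations for 48 h, and endpoints were estimated by linear interpolation. GI50: concentration for 50% inhibition of growth.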 Activity calls are given as the source filed them. Rule as the data show it: active = GI50 up to about 1.1 µM and inactive = higher.

How the values were obtained:
Test in all cases: NCI anticancer screen, dose series, 48 h
786-0 = tested on: 786-0
SN12C = tested on: SN12C
NCI-H522 = tested on: NCI-H522
OVCAR-4 = tested on: OVCAR-4
MDA-MB-435 = tested on: MDA-MB-435
PC-3 = tested on: PC-3
MOLT-4 = tested on: MOLT-4
UACC-62 = tested on: UACC-62
U-251 = tested on: U-251
TK-10 = tested on: TK-10
BT-549 = tested on: BT-549
A549 = tested on: A549
IGROV-1 = tested on: IGROV-1
HOP-92 = tested on: HOP-92
KM12 = tested on: KM12
CCRF-CEM = tested on: CCRF-CEM
M14 = tested on: M14
SK-OV-3 = tested on: SK-OV-3
MDA-N = tested on: MDA-N
SK-MEL-5 = tested on: SK-MEL-5
T47D = tested on: T47D
UACC-257 = tested on: UACC-257
Malme-3M = tested on: Malme-3M
HCT-116 = tested on: HCT-116
UO-31 = tested on: UO-31
SR = tested on: SR
NCI/ADR-RES = tested on: NCI/ADR-RES
MCF7 = tested on: MCF7
ACHN = tested on: ACHN
COLO 205 = tested on: COLO 205
SK-MEL-28 = tested on: SK-MEL-28
SNB-19 = tested on: SNB-19
SF-268 = tested on: SF-268
HOP-62 = tested on: HOP-62
SK-MEL-2 = tested on: SK-MEL-2
HT-29 = tested on: HT-29
SF-295 = tested on: SF-295
NCI-H460 = tested on: NCI-H460
HL-60 = tested on: HL-60
OVCAR-8 = tested on: OVCAR-8
SF-539 = tested on: SF-539
OVCAR-3 = tested on: OVCAR-3
MDA-MB-231 = tested on: MDA-MB-231
NCI-H226 = tested on: NCI-H226
Hs-578T = tested on: Hs-578T
NCI-H23 = tested on: NCI-H23
RPMI-8226 = tested on: RPMI-8226
OVCAR-5 = tested on: OVCAR-5
HCC 2998 = tested on: HCC 2998
DU-145 = tested on: DU-145
HCT-15 = tested on: HCT-15
SNB-75 = tested on: SNB-75
LOX IMVI = tested on: LOX IMVI
CAKI-1 = tested on: CAKI-1
SW-620 = tested on: SW-620
A498 = tested on: A498
RXF 393 = tested on: RXF 393
K562 = tested on: K562
EKVX = tested on: EKVX

With `CC1(C)S[C@@H]2[C@H](NC(=O)/C=C/c3ccccc3)C(=O)N2[C@H]1C(=O)O` the GI50 (786-0) was > 100 µM (inactive), the GI50 (SN12C) was > 100 µM (inactive) and the GI50 (NCI-H522) was > 100 µM (inactive). For the same compound, the GI50 (OVCAR-4) was > 100 µM (inactive), the GI50 (MDA-MB-435) was > 100 µM (inactive) and the GI50 (PC-3) was > 100 µM (inactive). The GI50 (MOLT-4) was > 100 µM (inactive), the GI50 (UACC-62) was > 100 µM (inactive) and the GI50 (U-251) was > 100 µM (inactive). For the same compound, the GI50 (TK-10) was > 100 µM (inactive), the GI50 (BT-549) was > 100 µM (inactive) and the GI50 (A549) was > 100 µM (inactive). For the same compound, the GI50 (IGROV-1) was > 100 µM (inactive), the GI50 (HOP-92) was > 100 µM (inactive) and the GI50 (KM12) was > 100 µM (inactive). For the same compound, the GI50 (CCRF-CEM) was > 100 µM (inactive), the GI50 (M14) was > 100 µM (inactive) and the GI50 (SK-OV-3) was > 100 µM (inactive). For the same compound, the GI50 (MDA-N) was > 100 µM (inactive), the GI50 (SK-MEL-5) was > 100 µM (inactive) and the GI50 (T47D) was > 100 µM (inactive). For the same compound, the GI50 (UACC-257) was > 100 µM (inactive), the GI50 (Malme-3M) was > 100 µM (inactive) and the GI50 (HCT-116) was > 100 µM (inactive). For the same compound, the GI50 (UO-31) was > 100 µM (inactive), the GI50 (SR) was > 100 µM (inactive) and the GI50 (NCI/ADR-RES) was > 100 µM (inactive). The GI50 (MCF7) was > 100 µM (inactive), the GI50 (ACHN) was > 100 µM (inactive) and the GI50 (COLO 205) was > 100 µM (inactive). For the same compound, the GI50 (SK-MEL-28) was 69.5 µM (inactive), the GI50 (SNB-19) was > 100 µM (inactive) and the GI50 (SF-268) was > 100 µM (inactive). The GI50 (HOP-62) was > 100 µM (inactive), the GI50 (SK-MEL-2) was > 100 µM (inactive) and the GI50 (HT-29) was > 100 µM (inactive). The GI50 (SF-295) was > 100 µM (inactive), the GI50 (NCI-H460) was > 100 µM (inactive) and the GI50 (HL-60) was > 100 µM (inactive). The GI50 (OVCAR-8) was > 100 µM (inactive), the GI50 (SF-539) was > 100 µM (inactive) and the GI50 (OVCAR-3) was > 100 µM (inactive). The GI50 (MDA-MB-231) was > 100 µM (inactive), the GI50 (NCI-H226) was > 100 µM (inactive) and the GI50 (Hs-578T) was > 100 µM (inactive). The GI50 (NCI-H23) was > 100 µM (inactive), the GI50 (RPMI-8226) was > 100 µM (inactive) and the GI50 (OVCAR-5) was > 100 µM (inactive). For the same compound, the GI50 (HCC 2998) was > 100 µM (inactive), the GI50 (DU-145) was > 100 µM (inactive) and the GI50 (HCT-15) was over 100 µM. For the same compound, the GI50 (SNB-75) was 47.9 µM (inactive), the GI50 (LOX IMVI) was > 100 µM (inactive) and the GI50 (CAKI-1) was > 100 µM (inactive). The GI50 (SW-620) was > 100 µM (inactive).
With `Cc1ccc(C(=O)Nc2ccc(S(=O)(=O)O)c3cc(S(=O)(=O)O)cc(S(=O)(=O)O)c23)cc1N` the GI50 (786-0) was > 100 µM (inactive), the GI50 (SN12C) was > 100 µM (inactive) and the GI50 (NCI-H522) was > 100 µM (inactive). The GI50 (OVCAR-4) was > 100 µM (inactive), the GI50 (PC-3) was > 100 µM (inactive) and the GI50 (MOLT-4) was > 100 µM (inactive). The GI50 (UACC-62) was > 100 µM (inactive), the GI50 (TK-10) was > 100 µM (inactive) and the GI50 (BT-549) was > 100 µM (inactive). For the same compound, the GI50 (A498) was > 100 µM (inactive), the GI50 (IGROV-1) was > 100 µM (inactive) and the GI50 (KM12) was > 100 µM (inactive). The GI50 (CCRF-CEM) was > 100 µM (inactive), the GI50 (M14) was > 100 µM (inactive) and the GI50 (SK-OV-3) was 91.6 µM (inactive). For the same compound, the GI50 (MDA-N) was > 100 µM (inactive), the GI50 (SK-MEL-5) was > 100 µM (inactive) and the GI50 (T47D) was > 100 µM (inactive). For the same compound, the GI50 (UACC-257) was > 100 µM (inactive), the GI50 (Malme-3M) was > 100 µM (inactive) and the GI50 (HCT-116) was > 100 µM (inactive). For the same compound, the GI50 (UO-31) was > 100 µM (inactive), the GI50 (SR) was > 100 µM (inactive) and the GI50 (NCI/ADR-RES) was > 100 µM (inactive). For the same compound, the GI50 (MCF7) was > 100 µM (inactive), the GI50 (ACHN) was > 100 µM (inactive) and the GI50 (COLO 205) was > 100 µM (inactive). For the same compound, the GI50 (SK-MEL-28) was > 100 µM (inactive), the GI50 (SNB-19) was > 100 µM (inactive) and the GI50 (SF-268) was > 100 µM (inactive). The GI50 (HOP-62) was > 100 µM (inactive), the GI50 (SK-MEL-2) was > 100 µM (inactive) and the GI50 (HT-29) was > 100 µM (inactive). For the same compound, the GI50 (SF-295) was 2.75 µM (inactive), the GI50 (NCI-H460) was > 100 µM (inactive) and the GI50 (HL-60) was > 100 µM (inactive). The GI50 (OVCAR-8) was > 100 µM (inactive), the GI50 (SF-539) was > 100 µM (inactive) and the GI50 (OVCAR-3) was > 100 µM (inactive). The GI50 (MDA-MB-231) was > 100 µM (inactive), the GI50 (NCI-H226) was > 100 µM (inactive) and the GI50 (Hs-578T) was > 100 µM (inactive). For the same compound, the GI50 (NCI-H23) was > 100 µM (inactive), the GI50 (RXF 393) was > 100 µM (inactive) and the GI50 (OVCAR-5) was > 100 µM (inactive). For the same compound, the GI50 (HCC 2998) was > 100 µM (inactive), the GI50 (DU-145) was > 100 µM (inactive) and the GI50 (HCT-15) was over 100 µM. For the same compound, the GI50 (SNB-75) was > 100 µM (inactive), the GI50 (CAKI-1) was > 100 µM (inactive) and the GI50 (SW-620) was > 100 µM (inactive). The GI50 (K562) was > 100 µM (inactive) and the GI50 (EKVX) was > 100 µM (inactive).
`CSC1C(=O)Nc2ccc3ccccc3c21` (configuration not stated) was tested, and the GI50 (786-0) was 16.1 µM (inactive), the GI50 (SN12C) was 20.6 µM (inactive) and the GI50 (NCI-H522) was 2.54 µM (inactive). The GI50 (OVCAR-4) was 20.2 µM (inactive), the GI50 (MDA-MB-435) was > 100 µM (inactive) and the GI50 (PC-3) was 16.3 µM (inactive). For the same compound, the GI50 (MOLT-4) was 28.1 µM (inactive), the GI50 (UACC-62) was 17.5 µM (inactive) and the GI50 (U-251) was 17.8 µM (inactive). For the same compound, the GI50 (TK-10) was 16.8 µM (inactive), the GI50 (BT-549) was 23.8 µM (inactive) and the GI50 (A549) was > 100 µM (inactive). The GI50 (IGROV-1) was 16.6 µM (inactive), the GI50 (HOP-92) was 16.3 µM (inactive) and the GI50 (KM12) was 18.6 µM (inactive). The GI50 (CCRF-CEM) was 21 µM (inactive), the GI50 (M14) was 23.1 µM (inactive) and the GI50 (SK-OV-3) was > 100 µM (inactive). The GI50 (MDA-N) was 56.5 µM (inactive), the GI50 (SK-MEL-5) was 21.9 µM (inactive) and the GI50 (T47D) was 9.71 µM (inactive). For the same compound, the GI50 (UACC-257) was 19 µM (inactive), the GI50 (Malme-3M) was 27.2 µM (inactive) and the GI50 (HCT-116) was 15.7 µM (inactive). For the same compound, the GI50 (UO-31) was 16.1 µM (inactive), the GI50 (NCI/ADR-RES) was 29.6 µM (inactive) and the GI50 (MCF7) was 38.1 µM (inactive). For the same compound, the GI50 (ACHN) was 27.4 µM (inactive), the GI50 (COLO 205) was 22.9 µM (inactive) and the GI50 (SK-MEL-28) was > 100 µM (inactive). The GI50 (SNB-19) was 89.5 µM (inactive), the GI50 (SF-268) was 17.4 µM (inactive) and the GI50 (HOP-62) was 34.3 µM (inactive). The GI50 (SK-MEL-2) was 27.1 µM (inactive), the GI50 (HT-29) was > 100 µM (inactive) and the GI50 (SF-295) was > 100 µM (inactive). For the same compound, the GI50 (NCI-H460) was > 100 µM (inactive), the GI50 (HL-60) was 1.54 µM (inactive) and the GI50 (OVCAR-8) was 17.7 µM (inactive). For the same compound, the GI50 (SF-539) was 17.4 µM (inactive), the GI50 (MDA-MB-231) was 23.2 µM (inactive) and the GI50 (NCI-H226) was 45.5 µM (inactive). The GI50 (Hs-578T) was 15.3 µM (inactive), the GI50 (NCI-H23) was > 100 µM (inactive) and the GI50 (RPMI-8226) was 3.13 µM (inactive). For the same compound, the GI50 (OVCAR-5) was > 100 µM (inactive), the GI50 (HCC 2998) was > 100 µM (inactive) and the GI50 (DU-145) was > 100 µM (inactive). The GI50 (HCT-15) was 19.3 µM, the GI50 (SNB-75) was 22.8 µM (inactive) and the GI50 (LOX IMVI) was 15.7 µM (inactive). For the same compound, the GI50 (CAKI-1) was 19.1 µM (inactive), the GI50 (SW-620) was 20.8 µM (inactive) and the GI50 (EKVX) was 15.8 µM (inactive).
